Data published in patent US5464838A, “Aminocarboxylic acid derivatives having antiallergic/antiasthmatic effect and a process for their preparation” (Asta Medica Aktiengesellschaft, priority 1992, dated 1995).

Tests used:
[1] = test system: allergically induced bronchospasm; assay: allergically induced bronchospasm in the guinea pig (modified Konzett-Rossler bronchospasmolysis); type: in vivo; conditions: Cavia porcellus, iv, 0.25 h, test substance intravenously, ovalbumin-triggered bronchial constriction 15 minutes later, read-out: inhibitory effect (ID50) in allergically induced bronchospasm
Excerpt: The compounds of the invention are characterized by good antiallergic and antiasthmatic effect.
The test model used to determine these values was a modification of the bronchospasmolysis experiment described by Konzett and Rossler (1).
The animals were narcoticized with urethane (1.5 g/kg i.p.). Trachea and v. jugularis were exposed by means of a skin incision. A tracheal cannula (Our own construction) was fitted to permit the intravenous application of propanolol, ovalbumin and a test substances, and which also permitted artificial respiration (Starling Pump, Braun Melsungen) and measurement of the intratracheal pressure (pressure uptake: Venous Pressure Transducer, Statham, type W 101 connected to a bridge amplifier, Hellige and Multicorder 6-channel ink plotter, Watanabe, type: WA 621-1). The entire preparation was completed after about 15 minutes. During the subsequent experiment the animals were ventilated with 40 breaths per minute and a volume of about 1 ml room air/100 g body weight. The intratracheal pressure was adjusted by this means to 10-15 cm water column. After a habituation phase of about 30 minutes, the test substances were administered intravenously. Propanolol was administered 10 minutes later. […] The resultant increase in intratracheal pressure was recorded on the plotter for at least 15 minutes.

[2] = test system: histamine-precontracted trachea; assay: histamine-precontracted trachea model (after Foster)

Row | IC50 [2] [µM] | Structure (SMILES) | ED50 [1] [µg/kg]
1 | 3.86 | CNCCC(CCC(=O)O)n1nc(Cc2ccc(Cl)cc2)c2ccccc2c1=O (stereo not shown) [Example 3, 4-(4-chlorobenzyl)-2-(5-methylamino-1-carboxy-3-pentyl)1(2H) -phthalazinone] | 9.9
2 | 35.5 | CNCCCC(CC(=O)O)n1nc(Cc2ccc(Cl)cc2)c2ccccc2c1=O (stereo not shown) [Example 6, 4-(4-chlorobenzyl)-2-[5-methylamino-1-carboxy-t-2-pentyl]-1(2H) -phthalazinone] | 0.8
